The values that follow come from publication PMC12764431 (Nature immunology, 2025).

For series [1], the system named is dendritic cells (DCs) pulsed with InsB9–23. The series is described as follows: MHC-II. Type of series: cell-based, NOD mice. The note with it: InsB9–23-pulsed DCs, TNFα or TNFα plus NAC; three independent peptidomes.
Series [2] has as its system islet and pancreatic lymph node cells. The series is described as follows: IFNγ ELISPOT, antigen recall of pooled islet and pancreatic lymph node cells. Type of series: cell-based. The note with it: cells pooled from islets and pancreatic lymph nodes of 8-week-old female NOD mice, peptide 1 μM; n = 4.
Series [3] has as its system MIN6 cells and B6 mouse islets. The series is described as follows: Granule-based antigen presentation. Particulars: MIN6 cells stimulated with TNFα; for S5 T cell responses to crinosome fractions from TNFα-treated MIN6 cells: with or without glutathione or TUDCA, n = 6. Type of series: cell-based.
In series [4] the test system is 9B9 CD4^+ T cell hybridoma. As to the kind of experiment: Response of the 9B9 CD4+ T cell hybridoma to synthetic peptides. Type of series: cell-based, NOD mice. The note with it: serially diluted peptide, IL-2 production.
Series [5] deals with S5 CD4^+ T cell hybridoma. As to the kind of experiment: Response of the S5 CD4+ T cell hybridoma to synthetic peptides. Type of series: cell-based, NOD mice. The note with it: serially diluted peptide, IL-2 production.
In series [6] the test system is InsB9–23(C19S)-specific T cell hybridomas. The series is described as follows: Responses of InsB9–23. Type of series: cell-based, NOD mice. The note with it: C3.g7 cells pulsed with peptides, 0.3 μM; n = 6 hybridomas.
The next series deals with MHC-II. Particulars: cited from earlier work.
For the next series, the system named is soluble I-A^g7 molecules. As to the kind of experiment: Biochemical competitive binding assay. More on the design: species or system mouse. Particulars: soluble I-A^g7, Extended Data Fig. 3c,d, n = 2.
The subject of series [7] is MIN6 cells and B6 mouse islets. As to the kind of experiment: β cell death and total granule protein after tunicamycin. It counts as cell-based. Particulars: tunicamycin 2 h, followed by extensive washing.

As for `CC(=O)N[C@@H](CS)C(=O)O` [NAC, N-acetylcysteine], the “InsB9–23(C19S) peptide in the DC I-A^g7 peptidome” value in series [1] is recorded as “reduced”.
With SHLVEALYLVCGERG [InsB9–23], the “IFNγ production by ELISPOT during antigen recall” value in [2] was “induced IFNγ production”.
For `C[C@H](CCC(=O)NCCS(=O)(=O)O)[C@H]1CC[C@H]2[C@@H]3[C@@H](O)C[C@@H]4C[C@H](O)CC[C@]4(C)[C@H]3CC[C@]12C` [TUDCA, tauroursodeoxycholic acid], in series [3], the “S5 T cell responses to crinosome fractions from TNFα-treated MIN6 cells” value is given as “inhibited”.
SHLVEALALVCGERG [InsB9–23(Y16A)]: the “Response of the 9B9 T cell hybridoma to peptide” value in series [4] is reported as “did not respond”. Besides, the “Response of the S5 T cell hybridoma to peptide” value in [5] was “failed to respond at any peptide concentration”.
In the case of EALYLVSGE [Nested InsB13-21(C19S)], in series [6], the “Recognition of register peptides by InsB9–23(C19S)-specific T cell hybridomas” value is reported as “only a few recognizing”.
`N[C@@H](CCC(=O)N[C@@H](CS)C(=O)NCC(=O)O)C(=O)O` [glutathione]: the “S5 T cell responses to crinosome fractions from TNFα-treated MIN6 cells” value in series [3] was “inhibited”.
For the compound GDLQTLALEVARE [CP1d], the “MHC-II binding relative to the native C-peptide” value in the series with MHC-II is listed as ~ 45 fold.
Take “InsB12–20(C19A): surrogate InsB12–20 peptide with C19A”: the “Binding to I-A^g7 compared to native counterparts” value with soluble I-A^g7 molecules was “similarly reduced binding”.
With TNFα, the “InsB9–23(C19S) peptide in the DC I-A^g7 peptidome” value in [1] is reported as “appeared”. In [3], the “Native InsB9–23 levels (9B9 T cell responses), TNFα-treated MIN6 cells” value is on record as “did not affect” and the “S5 T cell responses to crinosome fractions from TNFα-treated MIN6 cells” value is “significant increase”.
For the compound tunicamycin, in series [7], the β cell death entry is “did not cause β cell death”.
As for SHLVEALYLVSGERG [InsB9–23(C19S)], the “IFNγ production by ELISPOT during antigen recall” value in series [2] is reported as “triggered even higher responses”. Besides, in series [4], the “Response of the 9B9 T cell hybridoma to peptide” value is “minimal reactivity”. Further, the “Response of the S5 T cell hybridoma to peptide” value in series [5] is “responded robustly”.
